Measurements reported in patent US9040547B2, “Pyrrolopyrimidine and purine derivatives” (PFIZER INC., priority 2011, dated 2015).

Experiments:
Type in all cases: cell-based
[1] = molecular target: EGFR L858R+T790M (Homo sapiens, UniProt P00533, L858R/T790M); experiment: pEGFR Y1068 ELISA assay, NIH3T3/EGFR_L858R+T790M cells; conditions: 3T3 cell line, 2 hrs compound treatment; read-out: pEGFRY1068 ELISA3T3T790M—L858R IC50;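 note: sandwich ELISA of EGFR phosphorylated at Tyr1068 in lysates of stably transfected NIH/3T3 cells, 11-point threefold dilution series run in duplicate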
[2] = molecular target: EGFR L858R (Homo sapiens, UniProt P00533, L858R); experiment: pEGFR Y1068 ELISA assay, NIH3T3/EGFR_L858R cells; conditions: 3T3 cell line, 2 hrs compound treatment; read-out: pEGFRY1068 ELISA3T3 L858R IC50;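 note: sandwich ELISA of phospho-EGFR Tyr1068 in lysates of stably transfected NIH/3T3 pools after 2 h compound exposure at 37 °C, 11-point threefold dilution series run in duplicate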
[3] = molecular target: T1, EGFR wildtype, endogenous (Homo sapiens, UniProt P00533); experiment: pEGFR Y1068 ELISA assay, A549 cells; conditions: full serum media, stimulated 10 min with EGF (40 ng/mL), read-out: pEGFRY1068 ELISAA549 IC50;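 note: sandwich ELISA of phospho-EGFR Tyr1068 in cell lysates, cells exposed to compound for 2 h before EGF stimulation, 11-point threefold dilution series run in duplicate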
T1 construct: A549 (EGFR wildtype, endogenous); host or cells: A549

[4] = molecular target: T2, EGFR Del (PC9) (Homo sapiens, UniProt P00533, DEL746-750); experiment: EGFR ELISA, PC9 Del cells; conditions: read-out: EGFR_ELISA9E PC9 Del IC50;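 note: cellular EGFR autophosphorylation at Tyr1068 quantified by sandwich ELISA of cell lysates after 2 h compound exposure at 37 °C, 11-point threefold dilution series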
T2 construct: endogenous in cells; host or cells: PC-9

[5] = system: NCI-H3255; experiment: Cell proliferation assay (CellTiter-Glo), NCI-H3255; conditions: Homo sapiens, value marked (H3255), read-out: 3T3 L858R IC50, (H3255)
Protocol: (§1) Cell proliferation was measured using the CellTiter-Glo® Luminescent Cell Viability Assay. The assay involves the addition of a single reagent (CellTiter-Glo® Reagent) directly to cells cultured in serum-supplemented medium. The assay uses this one-step addition to induce cell lysis and generate a luminescent signal proportional to the amount of ATP present which is directly proportional to the number of metabolically active cells present in culture. The following cell lines were evaluated in this assay: NIH3T3/EGFR_L858R, NIH3T3/EGFR_E746-A750_deletion, NIH3T3/EGFR L858R+T790M, NIH3T3/EGFR_E746-A750_deletion+T790M, PC-9, PC9-DRH, NCI-H1975, and NCI-H3255. NIH/3T3 parental cells, NCI-H1975, and NCI-H3255 were purchased from the American Type Culture Collection (Manassas, Va.), and PC-9 cells were obtained from Japan. All cells were cultured according to recommendations. NIH/3T3 cells were grown in DMEM (Invitrogen, Carlsbad, Calif.) supplemented with 10% newborn calf serum (Invitrogen), and NIH3T3/EGFR mutant cells were grown in complete media with 5 μg/mL puromycin (Invitrogen). PC-9, NCI-H1975, and NCI-H3255 were grown in RPMI (Invitrogen, Carlsbad, Calif.) supplemented with 10% FBS (Sigma, St Louis, Mo.), and PC9-DRH cells were grown in complete media with 2 uM PF-00299804. Plasmids (pLPCX) with various EGFR constructs were made by GenScript (Piscataway, N.J.), and stable pools of NIH/3T3 cells expressing these constructs were made at Pfizer La Jolla. PC9-DRH cells were generated at Pfizer La Jolla by exposing cells to increasing concentrations of PF-00299804. Cells were plated in complete culture media (3000-5000 cells/well, 50 μl/well) on the bottom of white clear-bottom tissue culture treated microtiter plates (#3610, Corning Inc, Corning, N.Y.) and allowed to adhere overnight at 37° C., 5% CO2. The following day, compound dilution plates were prepared in 96 well clear V-bottom 0.5 mL polypropylene block plates (#3956, Corning, Inc). All cell lines were not evaluated for each compound. Each compound evaluated was prepared as a DMSO stock solution (10 mM). Compounds were tested in duplicate on each plate, with an 11-point serial dilution curve (1:3 dilution). Compound treatment (50 μl) was added from the compound dilution plate to the cell plate. The highest compound concentration was 1 or 10 μM (final), with a 0.3% final DMSO (#D-5879, Sigma, St Louis, Mo.) concentration. Plates were then incubated at 37° C., 5% CO2. After three to five days of compound treatment, CellTiter-Glo® Reagent (#G7573, Promega, Madison, Wis.) was prepared in one of two ways. If thawing a frozen aliquot of CellTiter-Glo® Reagent, the aliquot was thawed and equilibrated to room temperature prior to use while keeping it protected from light. Alternatively, new bottles of CellTiter-Glo® Buffer and CellTiter-Glo® Substrate were thawed and equilibrated to room temperature prior to use. CellTiter-Glo® Buffer (100 mL) was transferred into the amber bottle containing CellTiter-Glo® Substrate to reconstitute the lyophilized enzyme/substrate mixture, forming the CellTiter-Glo® Reagent. The reconstituted reagent was mixed by gently inverting the contents to obtain a homogeneous solution, and went into solution easily in less than one minute. Any unused reconstituted CellTiter-Glo® Reagent was immediately aliquoted and frozen at −20° C., protected from light. Cell plates were equilibrated at room temperature for approximately 30 minutes. An equivolume amount of CellTiter-Glo® Reagent (100 μL) was added to each well. Plates were mixed for two minutes on an orbital shaker to induce cell lysis, and then allowed to incubate at room temperature for 10 minutes to stabilize the luminescent signal. Luminescence was recorded using the PerkinElmer EnVision Excite Multilabel Reader used for endpoint reading for Luminescence detection (Waltham, Mass.). Data were analyzed using a four-parameter fit in Microsoft Excel. […]

[6] = system: PC-9; experiment: Cell proliferation assay (CellTiter-Glo), PC-9; conditions: Homo sapiens, value marked (PC9), read-out: 3T3 del IC50, (PC9)
Protocol: as §1

[7] = system: NIH3T3/EGFR L858R+T790M; experiment: Cell proliferation assay (CellTiter-Glo), NIH3T3/EGFR L858R+T790M; conditions: Mus musculus, NIH3T3, 120 h, 3T3 cell line, three to five days of compound treatment, read-out: 3T3 L858R_T790M IC50
[8] = system: PC9-DRH; experiment: Cell proliferation assay (CellTiter-Glo), PC9-DRH; conditions: value marked (PC9-DRH), read-out: 3T3 del_T790M IC50, (PC9-DRH)
Protocol: as §1

[9] = molecular target: T3, EGFR L858R+T790M, endogenous (Homo sapiens, UniProt P00533, L858R/T790M); experiment: pEGFR Y1068 ELISA assay, NCI-H1975 cells; conditions: value marked (H1975): NCI-H1975 cells, 2 hrs compound treatment; read-out: pEGFRY1068 ELISA3T3T790M—L858R IC50 (nM), (H1975);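 note: sandwich ELISA of endogenous phospho-EGFR (Tyr1068) in lysates of treated cells, 11-point 1:3 serial dilution tested in duplicate per plate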
T3 construct: NCI-H1975 (EGFR L858R+T790M, endogenous); host or cells: NCI-H1975

[10] = molecular target: T4, EGFR L858R, endogenous (Homo sapiens, UniProt P00533, L858R); experiment: pEGFR Y1068 ELISA assay, NCI-H3255 cells; conditions: value marked (H3255): NCI-H3255 cells, 2 hrs compound treatment; read-out: pEGFRY1068 ELISA3T3 L858R IC50 (nM), (H3255)
T4 construct: NCI-H3255 (EGFR L858R, endogenous); endogenous in cells; host or cells: NCI-H3255

[11] = system: NIH3T3/EGFR_E746-A750_deletion+T790M; experiment: Cell proliferation assay (CellTiter-Glo), NIH3T3/EGFR_E746-A750_deletion+T790M; conditions: Mus musculus, NIH3T3, 120 h, 3T3 cell line, three to five days of compound treatment, read-out: 3T3 del_T790M IC50
Protocol: as §1

[12] = system: NCI-H1975; experiment: Cell proliferation assay (CellTiter-Glo), NCI-H1975; conditions: Homo sapiens, value marked (H1975), read-out: 3T3 L858R_T790M IC50, (H1975)
Protocol: as §1

T4 sequence (P00533 25-1210 L858R): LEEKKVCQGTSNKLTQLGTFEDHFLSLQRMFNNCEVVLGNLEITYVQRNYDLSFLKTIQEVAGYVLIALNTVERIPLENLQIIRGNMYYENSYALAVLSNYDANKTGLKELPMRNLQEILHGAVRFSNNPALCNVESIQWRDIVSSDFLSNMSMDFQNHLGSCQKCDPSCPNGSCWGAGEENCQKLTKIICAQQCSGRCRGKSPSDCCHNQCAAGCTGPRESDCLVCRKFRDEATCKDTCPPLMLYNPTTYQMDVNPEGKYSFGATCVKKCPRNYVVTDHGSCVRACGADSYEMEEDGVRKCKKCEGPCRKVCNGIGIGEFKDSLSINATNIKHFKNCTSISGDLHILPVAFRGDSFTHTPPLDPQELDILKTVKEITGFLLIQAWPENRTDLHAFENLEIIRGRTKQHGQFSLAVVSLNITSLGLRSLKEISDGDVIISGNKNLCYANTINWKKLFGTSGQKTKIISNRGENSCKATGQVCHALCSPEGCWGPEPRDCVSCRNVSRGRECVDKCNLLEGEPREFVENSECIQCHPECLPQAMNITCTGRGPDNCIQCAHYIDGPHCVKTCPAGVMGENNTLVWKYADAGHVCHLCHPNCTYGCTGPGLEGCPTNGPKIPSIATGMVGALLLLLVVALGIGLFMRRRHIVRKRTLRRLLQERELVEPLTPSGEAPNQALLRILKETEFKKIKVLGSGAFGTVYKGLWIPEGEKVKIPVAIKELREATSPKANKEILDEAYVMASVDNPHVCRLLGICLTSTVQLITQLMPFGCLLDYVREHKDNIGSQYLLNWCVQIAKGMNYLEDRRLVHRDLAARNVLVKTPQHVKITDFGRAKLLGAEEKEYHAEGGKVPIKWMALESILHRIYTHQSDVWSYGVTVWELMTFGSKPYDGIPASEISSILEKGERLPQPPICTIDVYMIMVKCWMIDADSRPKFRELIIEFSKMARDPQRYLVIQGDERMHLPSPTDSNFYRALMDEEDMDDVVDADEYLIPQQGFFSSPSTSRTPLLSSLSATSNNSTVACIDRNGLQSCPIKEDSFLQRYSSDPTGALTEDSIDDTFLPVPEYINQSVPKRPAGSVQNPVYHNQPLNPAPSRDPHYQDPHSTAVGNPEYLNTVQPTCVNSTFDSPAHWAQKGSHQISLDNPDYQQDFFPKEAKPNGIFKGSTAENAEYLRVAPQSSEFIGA
T2 sequence (P00533 with tags, fused parts or gaps DEL746-750): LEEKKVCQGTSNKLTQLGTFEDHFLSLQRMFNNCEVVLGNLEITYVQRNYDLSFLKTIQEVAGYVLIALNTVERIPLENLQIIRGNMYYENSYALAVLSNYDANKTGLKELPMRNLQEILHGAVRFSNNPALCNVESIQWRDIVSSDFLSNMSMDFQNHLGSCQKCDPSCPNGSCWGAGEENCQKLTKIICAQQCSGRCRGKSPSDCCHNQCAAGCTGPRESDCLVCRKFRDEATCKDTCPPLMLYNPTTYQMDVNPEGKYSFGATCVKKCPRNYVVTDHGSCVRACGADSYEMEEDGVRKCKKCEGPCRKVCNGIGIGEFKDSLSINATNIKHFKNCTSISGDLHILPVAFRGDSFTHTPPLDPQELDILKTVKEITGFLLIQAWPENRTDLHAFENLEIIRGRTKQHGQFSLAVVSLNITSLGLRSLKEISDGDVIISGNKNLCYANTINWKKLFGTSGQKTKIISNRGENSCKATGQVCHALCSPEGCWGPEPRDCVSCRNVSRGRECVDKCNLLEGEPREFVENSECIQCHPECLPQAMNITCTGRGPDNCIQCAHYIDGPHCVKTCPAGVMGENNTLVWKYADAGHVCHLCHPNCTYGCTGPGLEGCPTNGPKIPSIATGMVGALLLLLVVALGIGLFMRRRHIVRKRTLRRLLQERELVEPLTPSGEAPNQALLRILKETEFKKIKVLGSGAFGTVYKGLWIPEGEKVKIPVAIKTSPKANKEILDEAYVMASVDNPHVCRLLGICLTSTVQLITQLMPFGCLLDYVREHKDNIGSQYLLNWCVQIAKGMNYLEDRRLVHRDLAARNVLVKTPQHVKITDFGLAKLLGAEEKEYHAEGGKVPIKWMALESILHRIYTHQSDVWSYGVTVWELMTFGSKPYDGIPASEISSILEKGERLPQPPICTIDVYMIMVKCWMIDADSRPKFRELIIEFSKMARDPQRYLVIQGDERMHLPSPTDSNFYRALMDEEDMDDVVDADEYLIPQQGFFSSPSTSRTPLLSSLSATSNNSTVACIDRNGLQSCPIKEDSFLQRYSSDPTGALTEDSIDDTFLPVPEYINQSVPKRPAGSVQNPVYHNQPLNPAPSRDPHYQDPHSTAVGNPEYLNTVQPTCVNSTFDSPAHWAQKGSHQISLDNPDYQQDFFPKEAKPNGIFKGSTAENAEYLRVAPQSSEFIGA
T1 sequence (P00533 25-1210): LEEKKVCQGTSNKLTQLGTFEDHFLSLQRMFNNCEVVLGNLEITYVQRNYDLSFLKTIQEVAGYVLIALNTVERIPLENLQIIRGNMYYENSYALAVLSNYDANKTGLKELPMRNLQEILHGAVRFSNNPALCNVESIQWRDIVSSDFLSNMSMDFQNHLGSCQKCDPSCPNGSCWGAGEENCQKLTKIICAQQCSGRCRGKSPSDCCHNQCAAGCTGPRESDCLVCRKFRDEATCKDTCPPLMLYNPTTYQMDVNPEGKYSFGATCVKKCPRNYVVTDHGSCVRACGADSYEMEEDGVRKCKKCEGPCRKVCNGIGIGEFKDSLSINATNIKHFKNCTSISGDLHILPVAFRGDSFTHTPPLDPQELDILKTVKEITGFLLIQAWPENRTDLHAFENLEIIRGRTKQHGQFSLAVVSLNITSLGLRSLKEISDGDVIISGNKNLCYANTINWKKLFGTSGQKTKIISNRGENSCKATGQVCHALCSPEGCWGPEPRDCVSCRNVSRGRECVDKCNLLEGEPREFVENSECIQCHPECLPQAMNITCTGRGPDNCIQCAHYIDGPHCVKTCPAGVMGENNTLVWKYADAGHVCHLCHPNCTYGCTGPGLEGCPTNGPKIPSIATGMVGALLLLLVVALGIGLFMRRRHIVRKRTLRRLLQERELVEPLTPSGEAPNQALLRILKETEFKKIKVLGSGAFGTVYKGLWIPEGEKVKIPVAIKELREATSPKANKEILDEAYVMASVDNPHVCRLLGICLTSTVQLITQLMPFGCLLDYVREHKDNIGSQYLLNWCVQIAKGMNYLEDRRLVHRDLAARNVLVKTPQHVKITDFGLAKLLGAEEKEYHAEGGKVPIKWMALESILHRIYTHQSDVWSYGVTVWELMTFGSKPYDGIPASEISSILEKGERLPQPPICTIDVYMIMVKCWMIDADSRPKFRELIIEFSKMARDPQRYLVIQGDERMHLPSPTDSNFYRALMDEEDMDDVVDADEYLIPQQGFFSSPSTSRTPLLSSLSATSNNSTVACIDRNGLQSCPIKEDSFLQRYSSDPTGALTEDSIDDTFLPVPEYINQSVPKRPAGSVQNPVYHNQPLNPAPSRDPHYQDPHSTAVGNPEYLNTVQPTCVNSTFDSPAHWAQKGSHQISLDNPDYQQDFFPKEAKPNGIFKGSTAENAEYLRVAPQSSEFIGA
T3 sequence (P00533 25-1210 T790M/L858R): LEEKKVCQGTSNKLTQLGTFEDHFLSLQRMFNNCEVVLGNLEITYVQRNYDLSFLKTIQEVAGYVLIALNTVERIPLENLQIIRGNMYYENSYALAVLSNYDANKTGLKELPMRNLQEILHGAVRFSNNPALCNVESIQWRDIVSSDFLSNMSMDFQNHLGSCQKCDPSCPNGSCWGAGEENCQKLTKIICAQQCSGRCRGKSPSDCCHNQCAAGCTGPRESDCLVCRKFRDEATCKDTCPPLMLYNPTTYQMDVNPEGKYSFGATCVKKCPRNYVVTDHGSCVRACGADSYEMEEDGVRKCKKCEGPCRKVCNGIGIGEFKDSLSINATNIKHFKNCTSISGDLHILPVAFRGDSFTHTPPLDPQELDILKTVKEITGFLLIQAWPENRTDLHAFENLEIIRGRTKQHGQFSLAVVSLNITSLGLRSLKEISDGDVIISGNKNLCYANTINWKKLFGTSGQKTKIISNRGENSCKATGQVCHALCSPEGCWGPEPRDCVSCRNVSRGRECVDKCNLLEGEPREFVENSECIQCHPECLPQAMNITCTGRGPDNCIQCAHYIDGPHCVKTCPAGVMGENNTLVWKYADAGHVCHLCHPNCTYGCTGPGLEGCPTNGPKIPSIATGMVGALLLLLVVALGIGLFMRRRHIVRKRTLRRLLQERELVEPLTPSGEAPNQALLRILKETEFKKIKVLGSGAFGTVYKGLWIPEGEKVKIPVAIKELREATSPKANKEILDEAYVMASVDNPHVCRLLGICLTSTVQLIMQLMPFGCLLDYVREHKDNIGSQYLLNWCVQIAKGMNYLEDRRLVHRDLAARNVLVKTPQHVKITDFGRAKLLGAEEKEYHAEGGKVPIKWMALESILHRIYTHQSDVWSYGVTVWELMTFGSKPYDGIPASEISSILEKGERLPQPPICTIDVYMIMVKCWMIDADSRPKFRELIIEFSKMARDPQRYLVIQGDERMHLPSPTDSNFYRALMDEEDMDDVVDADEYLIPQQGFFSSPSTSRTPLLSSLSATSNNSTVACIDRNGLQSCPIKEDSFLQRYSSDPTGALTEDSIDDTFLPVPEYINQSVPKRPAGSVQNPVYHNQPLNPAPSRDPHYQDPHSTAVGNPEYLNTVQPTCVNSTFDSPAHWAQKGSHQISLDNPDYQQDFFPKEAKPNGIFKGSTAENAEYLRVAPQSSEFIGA

IC50 [1] | IC50 [2] | IC50 [3] | IC50 [4] | IC50 [5] | IC50 [6] | IC50 [8] | IC50 [9] | IC50 [10] | IC50 [12] | Structure (SMILES) | IC50 [7] | IC50 [11]
0.377 µM | 0.482 µM | 3.44 µM | 0.812 µM | > 1 µM | > 1 µM | 0.1 to 1 µM | – | – | – | C=CC(=O)N1C[C@@H]2CN(c3nc(Nc4cn(C)nc4OC)nc4[nH]cc(Cl)c34)C[C@@H]2C1 [Example 99] | 0.1 to 1 µM | –
– | – | > 10 µM | 2.78 µM | – | – | – | 689 nM | 782 nM | – | C=CC(=O)N[C@H]1C[C@H](Oc2nc(Nc3cnn(C)c3)nc3[nH]cc(-c4ccccn4)c23)C1 [Example 12, N-[trans-3-({2-[(1-methyl-1H-pyrazol-4-yl)amino]-5-(pyridin-2-yl)-7H-pyrrolo[2,3-d]pyrimidin-4-yl}oxy)cyclobutyl]prop-2-enamide] | – | –
– | – | > 10 µM | 2.34 µM | – | – | – | 266 nM | 477 nM | – | C=CC(=O)N(C)[C@H]1C[C@H](Oc2nc(Nc3cnn(C)c3)nc3[nH]cc(-c4ccn(C)n4)c23)C1 [Example 86] | – | –
– | – | – | 0.091 µM | 0.1 to 1 µM | 0.1 to 1 µM | 0.1 to 1 µM | 89 nM | 48 nM | – | C=CC(=O)N(C)[C@H]1C[C@H](Oc2nc(Nc3cnn(C)c3)nc3[nH]cc(-c4cccnc4)c23)C1 [Example 13, N-methyl-N-[trans-3-({2-[(1-methyl-1H-pyrazol-4-yl)amino]-5-(pyridin-3-yl)-7H-pyrrolo[2,3-d]pyrimidin-4-yl}oxy)cyclobutyl]prop-2-enamide] | 0.1 to 1 µM | –
– | – | 0.45 µM | 0.087 µM | 0.01 to 0.1 µM | 0.1 to 1 µM | 0.01 to 0.1 µM | 5 nM | 31 nM | – | C=CC(=O)N1C[C@@H](F)[C@H](Nc2nc(Nc3cnn(C)c3)nc3[nH]cc(Cl)c23)C1 (single isomer, unassigned) [Example 83] | 0.01 to 0.1 µM | –
– | – | > 10 µM | > 6.76 µM | – | – | – | 136 nM | 776 nM | – | C=CC(=O)N1CC(Nc2nc(Nc3cnn(C)c3)nc3[nH]cc(Cl)c23)C1 [Example 79] | – | –
– | – | > 10 µM | 0.891 µM | – | – | – | 25 nM | 273 nM | – | C=CC(=O)N(C)[C@H]1C[C@H](Oc2nc(Nc3cn(C)nc3C#N)nc3[nH]cc(Cl)c23)C1 [Example 80] | – | –
0.027 µM | – | 4.29 µM | 0.472 µM | 0.01 to 0.1 µM | 0.1 to 1 µM | 0.01 to 0.1 µM | – | 139 nM | – | C=CC(=O)N(C)[C@H]1C[C@H](Nc2nc(Nc3cn(C)nc3C)nc3[nH]cc(Cl)c23)C1 [Example 98] | 0.01 to 0.1 µM | –
– | – | > 10 µM | 8.57 µM | – | – | – | 1570 nM | 2440 nM | – | C=CC(=O)N(C)[C@H]1C[C@H](Oc2nc(Nc3cnn(C)c3)nc3[nH]cc(-c4cnn(C)c4)c23)C1 [Example 95] | – | –
– | – | – | 0.328 µM | – | – | – | 24 nM | 107 nM | – | C=CC(=O)N(C)[C@H]1C[C@H](Oc2nc(Nc3cnn(CC#N)c3)nc3[nH]cc(Cl)c23)C1 [Example 116] | 0.01 to 0.1 µM | –
– | – | 2.19 µM | 0.342 µM | 0.1 to 1 µM | 0.1 to 1 µM | 0.01 to 0.1 µM | 15 nM | 101 nM | – | C=CC(=O)N1CC[C@@H](Nc2nc(Nc3cnn(C)c3)nc3[nH]cc(Cl)c23)C1 [Example 96] | 0.01 to 0.1 µM | –
0.191 µM | – | – | 0.154 µM | 0.01 to 0.1 µM | > 1 µM | 0.1 to 1 µM | – | 61 nM | – | C=CC(=O)N1C[C@H](Nc2nc(Nc3cnn(C)c3)nc3[nH]cc(Cl)c23)[C@@H](C(F)F)C1 [Example 85] | 0.01 to 0.1 µM | –
– | – | > 10 µM | > 10 µM | – | – | – | 638 nM | 973 nM | – | C=CC(=O)N1C[C@H](Nc2nc(Nc3cnn(C)c3)nc3[nH]cc(Cl)c23)[C@H](n2ccnn2)C1 [Example 82] | – | –
– | – | > 10 µM | > 10 µM | – | – | – | 457 nM | > 8580 nM | – | C=CC(=O)N[C@]1(C)C[C@@H](Oc2nc(Nc3cnn(C)c3)nc3[nH]cc(Cl)c23)C1 [Example 113] | – | –
– | – | – | – | 0.01 to 0.1 µM | – | – | – | – | – | C=CC(=O)N1C[C@H](COc2nc(Nc3cnn(C)c3)nc3[nH]cc(Cl)c23)[C@@H](F)C1 [Example 90] | – | –
– | – | 1.65 µM | 0.042 µM | 0.1 to 1 µM | 0.1 to 1 µM | – | 6 nM | 33 nM | – | C=CC(=O)N(C)[C@H]1C[C@H](Oc2nc(Nc3cnn(C)c3)nc3[nH]cc(-c4ccccn4)c23)C1 [Example 89] | 0.01 to 0.1 µM | 0.01 to 0.1 µM
– | – | – | – | 0.1 to 1 µM | 0.1 to 1 µM | – | – | – | > 1 µM | C=CC(=O)N1C[C@H](COc2nc(Nc3cnn(C)c3)nc3[nH]cc(Cl)c23)[C@@H](C(F)(F)F)C1 [Example 110] | – | –
– | – | 0.948 µM | 0.048 µM | 0.01 to 0.1 µM | > 1 µM | 0.1 to 1 µM | 14 nM | 43 nM | – | C=CC(=O)N1C[C@H](Nc2nc(Nc3cnn(C)c3)nc3[nH]cc(Cl)c23)[C@@H](C(F)(F)F)C1 [Example 87] | 0.1 to 1 µM | –
